From patent US20090053509A1, “Mixed solubility borate preservative” (U.S. Borax Inc., priority 2000, published 2009)

Key:
[1] = tested on: Coniophora puteana (brown rot); test: EN113 decay test of wood composites; assay type: cell-based; settings: wood composite PF face/pMDI core; preservative loading 0.1% by weight; 12 weeks fungal decay exposure; eight samples
Description: Wood composite samples were made having a phenol-formaldehyde (PF) resin face and a diphenylmethanediisocyanate (pMDI) resin core. Some of the samples included a combination of the zinc borate, 2ZnO·3B2O3·3.5H2O, (ZB) and disodium octaborate tetrahydrate (DOT) and others contained ZB alone, while still others contained no wood preservative. The ZB/DOT combination formulations contained 60% ZB by weight and 40% DOT. The preservative compositions were added to the wood composite samples at a loading of 0.1% by weight of the wood composite. The samples were cut to 50 mm×25 mm×20 mm before testing. A total of eight samples from each treatment set were subjected to decay testing.
A total of eight samples from each treatment set were tested according to a standard European decay test protocol known as EN113. The samples were first sealed in plastic bags and gamma irradiated at a level of at a level of 2.0 Mrad using a ^60Co source to ensure sterilization prior to mono-culture decay testing.
Aqueous solutions of 2.0% malt and 2.0% agar were prepared and then autoclaved at 120° C. for 30 minutes. […]
The decay results are shown in Table 1, expressed as average percent weight loss of the wood composite samples after 12 weeks of fungal decay exposure.

[2] = tested on: mold; test: Mold exposure test on aspen OSB with water repellant (Example 3); assay type: cell-based; settings: scale 0-4; for Mold Formation Rating: 4 weeks, OSB pMDI 6%
Description: (§1) Mold exposure testing was carried out using a modified version of the ASTM: D 3273-94 procedure. Exposure of the OSB samples to mold was done in an experimental chamber consisting of a 597 mm×311 mm×413 mm plastic container tilted on its side to give a 45° roof angle to prevent condensate dripping on the samples and filled with 2-3 inches of water. The water was heated to 32.5° C. (±1° C.), using a thermostatically controlled heating coil. A 292 mm×394 mm×133 mm plastic bowl was filled to within 3 inches from the top with a mixture of damp potting soil and unsterile soil collected from outdoors to provide an inoculum source for mold. The bowl was floated in the plastic container. The boards were placed on a plastic mesh above the inoculum source. The blocks were inverted at one week intervals. The test ran for a duration of 4 weeks.
Another set of mold tests similar to Example 2 was carried out. Test samples consisted of Aspen OSB bonded with pMDI resin at a 6% loading. The OSB samples were treated with a hydrophobic resin 1% EW-58S, manufactured by Borden, which served as a water repellant. The preservative treated OSB samples contained either zinc borate alone or a mixture of zinc borate and DOT, at a 60/40 weight ratio. Target loadings of preservative were 0.05, 0.10 and 0.20% by weight in the OSB samples . The OSB test samples were cut into 76 mm×102 mm panels for use in the mold testing. Mold exposure testing was carried out using essentially the same method described in Example 2, except that the water was heated to 30.5° C. (±1° C.). The relative humidity within the environmental chamber was monitored and maintained at .95 to 99% with an average temperature of 27 to 30° C.
After the four week mold exposure, the samples were examined visually and rated for mold growth on a scale of 0 to 4, as in Example 2.

[3] = tested on: mold; test: Mold exposure test on aspen OSB, modified ASTM D 3273-94 (Example 2); assay type: cell-based; settings: for Mold Formation Rating: 4 weeks; for Mold Formation Rating, Average: average over boards and soluble borates
Description: The effectiveness of the mixed solubility wood preservatives of this invention against mold growth was tested on samples of aspen oriented strand board (OSB). Two OSB formulations were evaluated. One type was bonded with pMDI resin at a 6% loading. The other type was bonded with a PF resin face and a pMDI resin core. The OSB samples contained either a mixed solubility borate preservative formulation or a low solubility borate alone, or no preservative in the case of the control samples. The low solubility borate in all cases was zinc borate 2:3:3.5. The two different high solubility borates were tested—disodium octaborate tetrahydrate (DOT) and boric oxide (B2O3), also known as anhydrous boric acid (ABA). The weight ratio of low solubility borate to high solubility borate in the mixed solubility samples was either 80/20 or 60/40. Two different target loadings of preservative in the OSB samples were tested—0.18% and 0.88% by weight.
as §1
After the four week mold exposure, the samples were examined visually and rated for mold formation on a scale of 0 to 4, with 0 representing no mold formation (i.e. complete control) and 4 representing complete coverage or overgrowth of the sample by mold. […] With regard to the ratio of high solubility borate to low solubility borate, the samples containing 40% soluble borate (i.e. 60% zinc borate) provided a significant improvement over the samples containing 0% soluble borate (i.e. 100% zinc borate), on average.

[4] = tested on: Formosan subterranean termite (Coptotermes formosanus Shiraki); test: Termite field test of aspen waferboards, Hilo; assay type: in vivo; settings: 0.88% preservative
Description: The performance of mixed solubility borate preservatives against termites was investigated in a study using aspen waferboards bonded with either 100% pMDI (in both face and core) or with Phenol Formaldehyde (PF) in the face and pMDI in the core. The boards were made with a target loading of 0.88% preservative utilizing the formulations (blends) described in Table 4. The borates were incorporated into the board by mixing the preservative formulations with the aspen wafers in a blender before addition of the adhesive and wax. Composite board specimens were exposed to the Formosan subterranean termite (Coptotermes formosanus Shiraki) at a field test site in Hilo, Hi. The specimens, along with untreated aspen ‘feeder’ stakes, are placed in a horizontal array on hollow core concrete blocks approximately 10 cm thick. In addition to surrounding the test specimens, the untreated feeder stakes are also driven into the ground in an effort to increase the termite pressure on the test specimens. The assembly is then covered with a wooden box to prevent direct contact with rain. This is a severe test format conducted using a very termite susceptible wood species (aspen).
After 3, 9 and 15 months exposure the boards were rated visually on a scale of 0 to 10 . A rating of 10 indicates the sample was in perfect condition, while a 0 rating means the sample was essentially destroyed. Each result consisted of an average rating from the inspection of 10 separate samples (10 replicates).

## 2ZnO·3B2O3·3.5H2O [ZB only]
[1]
  Average % Wt. Loss: 15.98%
[2]; target borate loading 0.05 % BAE, Edges
  Mold Formation Rating: 1.00
[2]; target borate loading 0.05 % BAE, Faces
  Mold Formation Rating: 1.00
[2]; target borate loading 0.10 % BAE, Edges
  Mold Formation Rating: 3.33
[2]; target borate loading 0.10 % BAE, Faces
  Mold Formation Rating: 2.67
[2]; target borate loading 0.20 % BAE, Edges
  Mold Formation Rating: 2.33
[2]; target borate loading 0.20 % BAE, Faces
  Mold Formation Rating: 1.00
[2]; average over loadings 0.05-0.20 % BAE, Faces and Edges
  Mold Formation Rating, Average: 1.89
[3]; scale 0 (no mold) to 4 (complete coverage), target borate loading 0.18 % BAE, board pMDI-6%, measured at Edges
  Mold Formation Rating: 2.00
[3]; scale 0-4, target borate loading 0.18 % BAE, board PF-pMDI, measured at Edges
  Mold Formation Rating: 2.00
[3]; scale 0-4, target borate loading 0.18 % BAE, board PF-pMDI, measured at Faces
  Mold Formation Rating: 1.25
[3]; scale 0-4, target borate loading 0.18 % BAE, board pMDI-6%, measured at Faces
  Mold Formation Rating: 0.75
[3]; scale 0-4, target borate loading 0.88 % BAE, board PF-pMDI, measured at Edges
  Mold Formation Rating: 1.50
[3]; scale 0-4, target borate loading 0.88 % BAE, board PF-pMDI, measured at Faces
  Mold Formation Rating: 0.75
[3]; scale 0-4, target borate loading 0.88 % BAE, board pMDI-6%, measured at Edges
  Mold Formation Rating: 0.75
[3]; scale 0-4, target borate loading 0.88 % BAE, board pMDI-6%, measured at Faces
  Mold Formation Rating: 0.00
[3]; scale 0-4, 0.18 % BAE, Edges
  Mold Formation Rating, Average: 2.00
[3]; scale 0-4, 0.18 % BAE, Faces
  Mold Formation Rating, Average: 1.00
[3]; scale 0-4, 0.88 % BAE, Edges
  Mold Formation Rating, Average: 1.13
[3]; scale 0-4, 0.88 % BAE, Faces
  Mold Formation Rating, Average: 0.38
[4]; scale 0 (destroyed) to 10 (perfect), board pMDI, 3 mos. exposure, average of 10 replicates
  Termites Ratings: 10
[4]; scale 0-10, board PF/pMDI, 3 mos. exposure
  Termites Ratings: 10
[4]; scale 0-10, board PF/pMDI, 9 mos. exposure
  Termites Ratings: 9.5
[4]; scale 0-10, board PF/pMDI, 15 mos. exposure
  Termites Ratings: 9.7
[4]; scale 0-10, board pMDI, 9 mos. exposure
  Termites Ratings: 9.8
[4]; scale 0-10, board pMDI, 15 mos. exposure
  Termites Ratings: 9.9
